Source: patent US3974140A, “Ureidoacetamido-penicillins” (Bayer Aktiengesellschaft, priority 1970, dated 1976)

What was measured:
[1] = test system: Streptoc. faec. ATCC 9790; experiment: MIC, liquid medium test tube series dilution test; type: cell-based; conditions: Strep. faec. (Enterococcus) ATCC 9790, 24 hours, 37°C
How it was run: (§1)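 In this in vitro test, growth inhibition is judged by absence of turbidity across a dilution series in complete nutrient broth. Readings are made after 24 hours at 37°C, with values given in units/ml.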

Klebsiella 63 = experiment: MIC, liquid medium test tube series dilution test; type: cell-based; conditions: Klebsiella 63, 24 hours, 37°C
How it was run: as §1

E. coli A 261 = experiment: MIC, liquid medium test tube series dilution test; type: cell-based; conditions: E. coli A 261, 24 hours, 37°C
How it was run: as §1

E. coli 14 = experiment: MIC, liquid medium test tube series dilution test; type: cell-based; conditions: E. coli 14, 24 hours, 37°C
How it was run: as §1

E. coli C 165 = experiment: MIC, liquid medium test tube series dilution test; type: cell-based; conditions: E. coli C 165, 24 hours, 37°C
How it was run: as §1

Klebsiella K 10 = experiment: MIC, liquid medium test tube series dilution test; type: cell-based; conditions: Klebsiella K 10, 24 hours, 37°C
How it was run: as §1

E. coli 183/58 = experiment: MIC, liquid medium test tube series dilution test; type: cell-based; conditions: E. coli 183/58, 24 hours, 37°C
How it was run: as §1

Proteus vulg. 1017 = experiment: MIC, liquid medium test tube series dilution test; type: cell-based, Proteus vulgaris; conditions: Proteus vulg. 1017, 24 hours, 37°C
How it was run: as §1

Proteus vulg. 3400 = experiment: MIC, liquid medium test tube series dilution test; type: cell-based, Proteus vulgaris; conditions: Proteus vulg. 3400, 24 hours, 37°C
How it was run: as §1

[2] = Acute toxicity (LD50), intravenous injection into the vein of the tail; type: in vivo; conditions: mouse, in vivo, iv
Source text: Acute toxicity (LD50) in white mice after
intravenous injection into the vein of the […]

Acid stability = type: physicochemical; conditions: pH 1 where stated
Psdm. aerug. Bonn = experiment: MIC, liquid medium test tube series dilution test; type: cell-based, Pseudomonas aerug.; conditions: 24 hours, 37°C
How it was run: as §1

Psdm. aerug. Walter = experiment: MIC, liquid medium test tube series dilution test; type: cell-based, Pseudomonas aerug.; conditions: 24 hours, 37°C
How it was run: as §1

Staph. aureus 133 [3] = experiment: MIC, liquid medium test tube series dilution test; type: cell-based, Staphylococcus aureus; conditions: Staph. aureus 133, 24 hours, 37°C
How it was run: as §1

Staph. aureus 1777 E = experiment: MIC, liquid medium test tube series dilution test; type: cell-based, Staphylococcus aureus; conditions: 24 hours, 37°C
How it was run: as §1

Staph. aureus 133 [4] = experiment: Surviving mice after intraperitoneal infection and subcutaneous therapy; type: in vivo, white mice, CF1 strain; conditions: 2 × 200 units/mouse s.c.
Procedure: The experiments on animals (see Table 3) were carried out with white mice of the CF1 strain. The infection took place intraperitoneally with the particular bacterium indicated.

[5] = Serum level after subcutaneous administration, measured from microbiological activity against Proteus vulgaris 1017; type: in vivo, white mice; conditions: 150.000 units s.c.
Source text: Serum level after subcutaneous ("s.c.") administration to white mice, in units/ml of serum, measured from the microbiological activity against Proteus vulgaris 1017 (ampicillin-resistant).

[6] = test system: Gram-negative and Gram-positive bacteria; experiment: Antibacterial effect, general statements; conditions: MIC comparison

Row | SMILES | MIC [1] | MIC (Klebsiella 63) | MIC (E. coli A 261) | MIC (E. coli 14) | MIC (E. coli C 165) | MIC (Klebsiella K 10) | MIC (E. coli 183/58) | MIC (Proteus vulg. 1017) | MIC (Proteus vulg. 3400) | Stability to acid (Acid stability) | MIC (Psdm. aerug. Bonn) | MIC (Psdm. aerug. Walter) | MIC (Staph. aureus 133 [3]) | MIC (Staph. aureus 1777 E) | Number of surviving mice (Staph. aureus 133 [4]; 1 day) | Number of surviving mice (Staph. aureus 133 [4]; 2 days) | Number of surviving mice (Staph. aureus 133 [4]; 3 days) | Number of surviving mice (Staph. aureus 133 [4]; 5 days) | also measured
1 | CC(=O)N(C)C(=O)N[C@@H](C(=O)N[C@@H]1C(=O)N2[C@@H]1SC(C)(C)[C@@H]2C(=O)O)c1ccccc1 [Example 66A, Sodium D(-)-α-(3-acetyl-3-methyl-ureido)-benzylpenicillin] | 25 units/ml | 50 units/ml | > 400 units/ml | 3.12 units/ml | 12.5 units/ml | 50 units/ml | 50 units/ml | 50 units/ml | 100 units/ml | remain microbiologically active at pH 1 for over one hour | 6.25 units/ml | 12.5 units/ml | < 0.78 units/ml | 50 units/ml | 100% | 90% | 70% | 70% | LD50 [2]: > 4000 mg/kg
2 | CN(C(=O)N[C@@H](C(=O)N[C@@H]1C(=O)N2[C@@H]1SC(C)(C)[C@@H]2C(=O)O)c1ccccc1)C(=O)c1ccccc1 [Example 59, Sodium D(-)-α-(3-benzoyl-3-methyl-ureido)-benzylpenicillin] | 100 units/ml | 50 units/ml | > 400 units/ml | 1.56 units/ml | 6.25 units/ml | 25 units/ml | 3.12 units/ml | 6.25 units/ml | 12.5 units/ml | remain microbiologically active at pH 1 for over one hour | 12.5 units/ml | 25 units/ml | < 0.78 units/ml | 100 units/ml | 90% | 70% | 70% | 70% | Serum level ([5]; 15 mins.): 25 units/ml of serum; Serum level ([5]; 30 mins.): 20 units/ml of serum; Serum level ([5]; 60 mins.): < 2 units/ml of serum
3 | CN(C(=O)N[C@@H](C(=O)N[C@@H]1C(=O)N2[C@@H]1SC(C)(C)[C@@H]2C(=O)O)c1ccccc1)C(=O)OC1CCCCC1 [Example 67, Sodium D(-)-α-(3-cyclohexyloxycarbonyl-3-methyl-ureido)-benzylpenicillin] | 100 units/ml | 100 units/ml | 400 units/ml | 1.56 units/ml | 6.25 units/ml | 100 units/ml | 1.56 units/ml | 6.25 units/ml | 6.25 units/ml |  | 25 units/ml | 50 units/ml | < 0.78 units/ml | 400 units/ml |  |  |  |  | MIC (E. coli A 261; listed as (B) of Example 29): 400 units/ml; MIC (E. coli 14; listed as (B) of Example 29): 1.56 units/ml; MIC (E. coli C 165; listed as (B) of Example 29): 6.25 units/ml; MIC (Klebsiella K 10; listed as (B) of Example 29): 100 units/ml; MIC (E. coli 183/58; listed as (B) of Example 29): 1.56 units/ml; MIC (Proteus vulg. 1017; listed as (B) of Example 29): 6.25 units/ml; MIC (Proteus vulg. 3400; listed as (B) of Example 29): 6.25 units/ml; Biological activity compared between penicillin (A) and penicillin (B) [6]: identical within the limit of error; MIC (Staph. aureus 133 [3]; listed as (B) of Example 29): < 0.7 units/ml
